According to paper PMC10447267, “Assessment of the potential of the MET inhibitor tepotinib to affect the pharmacokinetics of CYP3A4 and P-gp substrates” (Investigational New Drugs, 2023):
pIC50, pKi: −log10 of the molar value. Where two headings read alike, the source gives them in different places.

How the values were obtained:
CYP2D6 = target: T1, CYP2D6 (Homo sapiens, UniProt P10635); experiment: biochemical; assay type: in vitro ADME; details: for inhibition at 49.5 µM: both sexes, human, microsomes
T1 construct: pooled mixed-gender human liver microsomes; from tissue; host or cells: pooled mixed-gender human liver microsomes
T1 sequence (P10635 whole entry): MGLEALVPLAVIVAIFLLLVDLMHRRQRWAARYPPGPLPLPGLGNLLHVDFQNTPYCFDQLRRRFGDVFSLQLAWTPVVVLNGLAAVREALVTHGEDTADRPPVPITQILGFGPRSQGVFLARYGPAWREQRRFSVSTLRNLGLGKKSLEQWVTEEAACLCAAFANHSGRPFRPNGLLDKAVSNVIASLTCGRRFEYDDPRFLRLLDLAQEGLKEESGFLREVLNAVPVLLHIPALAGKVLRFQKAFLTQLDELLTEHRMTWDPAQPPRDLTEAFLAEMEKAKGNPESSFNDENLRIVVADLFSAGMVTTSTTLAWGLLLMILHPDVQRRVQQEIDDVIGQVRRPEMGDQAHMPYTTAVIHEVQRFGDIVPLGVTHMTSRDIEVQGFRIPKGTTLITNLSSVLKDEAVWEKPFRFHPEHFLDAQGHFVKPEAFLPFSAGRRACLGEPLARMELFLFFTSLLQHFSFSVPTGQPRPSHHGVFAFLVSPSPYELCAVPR
Procedure: (§1) The potential of tepotinib and MSC2571109A to inhibit CYP450 enzymes CYP1A2, 2A6, 2B6, 2C8, 2C9, 2C19, 2D6, 2E1, and 3A4/5 in vitro was evaluated using CYP-catalyzed reactions in pooled mixed-gender human liver microsomes using specific substrates and liquid chromatography/tandem mass spectrometry (LC–MS/MS) readouts. […] Testosterone 6β-hydroxylation was assessed in the MSC2571109A study. Assessments of mechanism-based inhibition of the above listed CYP450 enzymes were conducted after pre-incubation of the microsomes with tepotinib or MSC2571109A. A brief summary of the incubation methods, including details of substrates used for the other CYP enzymes (which are not pertinent to this article) are presented in Online Resource 1. The LC–MS/MS-based methods used were consistent with those previously described in the literature.

CYP2E1 = target: T2, CYP2E1 (Homo sapiens, UniProt P05181); experiment: biochemical; assay type: in vitro ADME; details: for inhibition at 49.5 µM: both sexes, human, microsomes
T2 construct: pooled mixed-gender human liver microsomes; from tissue; host or cells: pooled mixed-gender human liver microsomes
T2 sequence (P05181 whole entry): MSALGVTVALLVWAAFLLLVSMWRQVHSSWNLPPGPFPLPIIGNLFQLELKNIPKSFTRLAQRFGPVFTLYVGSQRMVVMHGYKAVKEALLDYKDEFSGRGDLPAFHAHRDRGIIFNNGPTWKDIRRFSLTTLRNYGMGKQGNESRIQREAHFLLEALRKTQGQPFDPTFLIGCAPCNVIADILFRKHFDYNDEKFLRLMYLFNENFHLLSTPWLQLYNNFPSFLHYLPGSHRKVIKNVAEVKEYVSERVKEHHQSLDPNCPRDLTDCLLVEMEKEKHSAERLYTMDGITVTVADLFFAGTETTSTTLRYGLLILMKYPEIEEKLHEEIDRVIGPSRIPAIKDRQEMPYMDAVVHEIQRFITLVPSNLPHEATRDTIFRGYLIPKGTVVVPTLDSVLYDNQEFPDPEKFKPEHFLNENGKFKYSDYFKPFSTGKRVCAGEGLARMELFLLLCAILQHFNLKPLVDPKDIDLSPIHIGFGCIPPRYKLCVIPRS
Procedure: as §1

CYP3A4/5 [1] = assay type: in vitro ADME, human
Procedure: (§2) In vitro studies in primary human hepatocyte cultures were conducted to assess the potential of tepotinib to induce human CYP1A1/2, 2B6 and 3A4/5 activity, the latter based on testosterone 6β-hydroxylation reactions (Online Resource 2). […] The studies included positive (rifampin) and vehicle (DMSO) controls. A negative control (flumazenil) was also included in the mRNA studies. The study designs, test systems and selection of prototypical inducers used in these studies were consistent with PhRMA, FDA and EMA guidelines.

P-gp = P-gp (Homo sapiens, UniProt P08183); experiment: P-gp inhibition in Caco-2 cell monolayers with [3H]-digoxin; assay type: in vitro ADME; design: An in vitro assay in Caco-2 cell monolayers; endogenous in cells; host or cells: Caco-2
P-gp, sequence (P08183 whole entry): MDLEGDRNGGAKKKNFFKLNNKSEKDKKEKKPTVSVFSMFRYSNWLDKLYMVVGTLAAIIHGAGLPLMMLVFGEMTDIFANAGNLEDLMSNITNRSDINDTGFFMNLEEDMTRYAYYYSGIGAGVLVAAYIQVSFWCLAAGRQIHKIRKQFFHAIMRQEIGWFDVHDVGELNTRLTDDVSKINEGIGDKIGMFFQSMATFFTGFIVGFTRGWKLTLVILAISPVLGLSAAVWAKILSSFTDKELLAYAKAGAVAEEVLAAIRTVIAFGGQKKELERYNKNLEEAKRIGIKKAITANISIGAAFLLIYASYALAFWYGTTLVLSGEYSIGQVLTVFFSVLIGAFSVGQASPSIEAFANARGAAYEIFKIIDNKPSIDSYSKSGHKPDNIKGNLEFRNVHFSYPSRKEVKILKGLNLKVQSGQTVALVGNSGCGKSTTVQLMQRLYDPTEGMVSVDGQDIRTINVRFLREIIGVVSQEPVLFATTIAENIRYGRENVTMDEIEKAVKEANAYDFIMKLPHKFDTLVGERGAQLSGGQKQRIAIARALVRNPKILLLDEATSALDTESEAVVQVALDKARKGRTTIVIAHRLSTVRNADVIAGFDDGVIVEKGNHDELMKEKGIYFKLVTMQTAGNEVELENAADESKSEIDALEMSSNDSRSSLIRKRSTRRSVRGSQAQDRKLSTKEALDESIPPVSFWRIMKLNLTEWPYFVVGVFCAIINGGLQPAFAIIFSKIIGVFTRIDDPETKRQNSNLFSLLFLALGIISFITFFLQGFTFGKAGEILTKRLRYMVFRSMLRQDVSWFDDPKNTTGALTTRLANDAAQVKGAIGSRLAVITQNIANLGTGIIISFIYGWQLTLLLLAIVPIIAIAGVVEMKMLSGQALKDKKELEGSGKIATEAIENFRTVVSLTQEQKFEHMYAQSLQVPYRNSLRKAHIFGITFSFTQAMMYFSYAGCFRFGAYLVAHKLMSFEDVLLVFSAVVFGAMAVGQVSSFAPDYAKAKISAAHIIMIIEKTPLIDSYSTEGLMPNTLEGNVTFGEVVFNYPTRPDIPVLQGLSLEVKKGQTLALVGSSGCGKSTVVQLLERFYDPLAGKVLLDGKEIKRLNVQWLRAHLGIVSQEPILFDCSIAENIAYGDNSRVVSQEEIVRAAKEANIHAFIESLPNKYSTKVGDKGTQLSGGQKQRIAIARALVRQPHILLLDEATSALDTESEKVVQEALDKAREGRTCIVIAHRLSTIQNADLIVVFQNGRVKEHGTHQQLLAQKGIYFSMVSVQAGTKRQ
Procedure: An in vitro assay in Caco-2 cell monolayers was performed to assess the P-gp inhibition potential of tepotinib (Online Resource 4). [^3H]-digoxin was used as a P-gp probe substrate. Control experiments were conducted to ensure acceptable performance of the cells. The extent of inhibition in these studies, expressed as IC50, was determined by quantification of the transport or uptake of ^3H-digoxin in Caco-2 cells in the absence and presence of tepotinib.
To assess the potential clinical risk and to identify whether an in vivo DDI study was required, drug concentration ([I])/IC50 ratios and/or R-values were calculated considering the mean human steady state exposure of parent drug and its metabolite, observed at the clinical dose of 500 mg tepotinib. Results were assessed according to both FDA and EMA criteria.

CYP2A6 = target: T3, CYP2A6 (Homo sapiens, UniProt P11509); experiment: CYP2A6 inhibition in pooled human liver microsomes; assay type: in vitro ADME; details: Coumarin 7-hydroxylation; for inhibition at 49.5 µM: both sexes, human, pooled human liver microsomes, probe coumarin
T3 construct: pooled mixed-gender human liver microsomes; from tissue; host or cells: pooled mixed-gender human liver microsomes
T3 sequence (P11509 1-494): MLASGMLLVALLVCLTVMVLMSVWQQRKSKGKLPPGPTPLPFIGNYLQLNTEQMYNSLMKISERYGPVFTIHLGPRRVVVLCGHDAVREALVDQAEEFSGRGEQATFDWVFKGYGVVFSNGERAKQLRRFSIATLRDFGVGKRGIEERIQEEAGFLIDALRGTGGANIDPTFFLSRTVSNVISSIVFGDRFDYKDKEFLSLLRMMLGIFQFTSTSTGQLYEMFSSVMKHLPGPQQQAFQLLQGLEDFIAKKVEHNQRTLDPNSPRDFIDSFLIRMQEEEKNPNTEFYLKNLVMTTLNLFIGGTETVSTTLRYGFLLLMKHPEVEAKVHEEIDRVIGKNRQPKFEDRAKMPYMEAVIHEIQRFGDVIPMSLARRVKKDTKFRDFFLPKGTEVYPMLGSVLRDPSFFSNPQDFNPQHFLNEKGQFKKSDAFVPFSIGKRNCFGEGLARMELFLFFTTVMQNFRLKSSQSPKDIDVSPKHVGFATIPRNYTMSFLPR
Procedure: as §1

CYP2B6 = CYP2B6 activity induction in primary human hepatocyte cultures; assay type: in vitro ADME; details: enzyme activity quantification
Procedure: as §2

CYP1A1/2 = CYP1A1/2 activity induction in primary human hepatocyte cultures; assay type: in vitro ADME; details: enzyme activity quantification
Procedure: as §2

[2] = Tepotinib steady-state pharmacokinetics at the clinical dose; details: human, in vivo, oral, 500 mg
[3] = human mass balance study; cited from earlier work
CYP3A4/5 [4] = experiment: CYP3A4/5 inhibition in pooled human liver microsomes; assay type: in vitro ADME; details: for inhibition at 49.5 µM / pIC50: human, microsomes
Procedure: as §1, with “Testosterone 6β-hydroxylation was assessed in the MSC2571109A study.” left out

[5] = Safety and tolerability in the two clinical studies; assay type: in vivo, human; details: healthy participants; tepotinib 500 mg once daily, both studies
Procedure: Safety and tolerability were also assessed throughout each study.

[6] = P-gp, clinical dose of 500 mg once daily

## CN1CCC(COc2cnc(-c3cccc(Cn4nc(-c5cccc(C#N)c5)ccc4=O)c3)nc2)CC1 [tepotinib]
CYP2D6
  pIC50: < 4.31
CYP2D6; Dextromethorphan O-demethylation
  Potential for time-dependent inhibition: Little or No
CYP2D6; Dextromethorphan O-demethylation, 30-min preincubation, read-out: Time-dependent inhibition, maximum inhibition at 49.5 µM
  inhibition at 49.5 µM: 24%
CYP2D6; Dextromethorphan O-demethylation, zero-minute preincubation, read-out: Direct inhibition, maximum inhibition at 49.5 µM
  inhibition at 49.5 µM: 50%
CYP2D6; read-out: Time-dependent inhibition IC50, Dextromethorphan O-demethylation, 30-min preincubation
  pIC50: < 4.31
CYP2E1
  pIC50: < 4.31
CYP2E1; Chlorzoxazone 6-hydroxylation
  Potential for time-dependent inhibition: Little or No
CYP2E1; Chlorzoxazone 6-hydroxylation, 30-min preincubation, read-out: Time-dependent inhibition, maximum inhibition at 49.5 µM
  inhibition at 49.5 µM: 17%
CYP2E1; Chlorzoxazone 6-hydroxylation, zero-minute preincubation, read-out: Direct inhibition, maximum inhibition at 49.5 µM
  inhibition at 49.5 µM: 19%
CYP2E1; read-out: Time-dependent inhibition IC50, Chlorzoxazone 6-hydroxylation, 30-min preincubation
  pIC50: < 4.31
CYP3A4/5 [1]; in vitro
  Induction of CYP3A4/5 activity (in words): did not induce
CYP3A4/5 [1]; primary human hepatocyte cultures, enzyme activity quantification (testosterone 6β-hydroxylation)
  Induction of CYP3A4/5 activity: less than 40 % of positive control
P-gp; Caco-2 cell monolayers, [3H]-digoxin probe substrate, read-out: Apparent IC50, P-gp inhibition
  pIC50: 6.39
P-gp; [6]
  [I]/IC50 ratio (intestinal): 8917
  [I]/IC50 ratio (systemic): 0.39
CYP2A6
  Potential for time-dependent inhibition: Little or No
CYP2A6; 30-min preincubation, read-out: Time-dependent inhibition IC50
  pIC50: 4.41
CYP2A6; 30-min preincubation, read-out: Time-dependent inhibition, maximum inhibition at 49.5 µM
  inhibition at 49.5 µM: 52%
CYP2A6; zero-minute preincubation, read-out: Direct inhibition, maximum inhibition at 49.5 µM
  inhibition at 49.5 µM: 51%
CYP2A6; human liver microsomes, zero-minute preincubation, read-out: Direct inhibition IC50
  pIC50: < 4.31
CYP2B6
  Induction of CYP2B6 activity: less than 40 % of positive control
CYP1A1/2
  Induction of CYP1A1/2 activity: less than 40 % of positive control
[2]; Median steady state Tmax
  Tmax: 8 h
[2]; Steady state Tmax, range
  Tmax: 2 to 24 h
[3]
  Share of total circulating radioactivity in plasma: 55%
CYP3A4/5 [4]; Midazolam 6β-hydroxylation
  Potential for time-dependent inhibition: Little or No
CYP3A4/5 [4]; Nifedipine oxidation
  Potential for time-dependent inhibition: Little or No
CYP3A4/5 [4]; Testosterone 1’-hydroxylation
  Potential for time-dependent inhibition: Little or No
CYP3A4/5 [4]; both sexes, Midazolam 6β-hydroxylation, 30-min preincubation, read-out: Time-dependent inhibition, maximum inhibition at 49.5 µM
  inhibition at 49.5 µM: 60%
CYP3A4/5 [4]; both sexes, Midazolam 6β-hydroxylation, 30-min preincubation, read-out: Time-dependent inhibition IC50
  pIC50: 4.48
CYP3A4/5 [4]; both sexes, Midazolam 6β-hydroxylation, zero-minute preincubation, read-out: Direct inhibition, maximum inhibition at 49.5 µM
  inhibition at 49.5 µM: 66%
CYP3A4/5 [4]; both sexes, Nifedipine oxidation, 30-min preincubation, read-out: Time-dependent inhibition, maximum inhibition at 49.5 µM
  inhibition at 49.5 µM: 71%
CYP3A4/5 [4]; both sexes, Nifedipine oxidation, 30-min preincubation, read-out: Time-dependent inhibition IC50
  pIC50: 4.60
CYP3A4/5 [4]; both sexes, Nifedipine oxidation, zero-minute preincubation, read-out: Direct inhibition, maximum inhibition at 49.5 µM
  inhibition at 49.5 µM: 64%
CYP3A4/5 [4]; both sexes, Testosterone 1’-hydroxylation, 30-min preincubation, read-out: Time-dependent inhibition, maximum inhibition at 49.5 µM
  inhibition at 49.5 µM: 59%
CYP3A4/5 [4]; both sexes, Testosterone 1’-hydroxylation, 30-min preincubation, read-out: Time-dependent inhibition IC50
  pIC50: 4.43
CYP3A4/5 [4]; both sexes, Testosterone 1’-hydroxylation, zero-minute preincubation, read-out: Direct inhibition, maximum inhibition at 49.5 µM
  inhibition at 49.5 µM: 62%
CYP3A4/5 [4]; both sexes, human liver microsomes, Midazolam 6β-hydroxylation, zero-minute preincubation, read-out: Direct inhibition IC50
  pIC50: 4.60
CYP3A4/5 [4]; both sexes, human liver microsomes, Nifedipine oxidation, zero-minute preincubation, read-out: Direct inhibition IC50
  pIC50: 4.59
CYP3A4/5 [4]; both sexes, human liver microsomes, Testosterone 1’-hydroxylation, zero-minute preincubation, read-out: Direct inhibition IC50
  pIC50: 4.51
CYP3A4/5 [4]; both sexes, in vitro, abstract summary, read-out: IC50, direct or time-dependent CYP3A4/5 inhibition
  pIC50: < 4.82
CYP3A4/5 [4]; both sexes, human liver microsomes, read-out: Ki, CYP3A4/5-catalyzed probe substrate reactions
  pKi: ≤ 4.96
CYP3A4/5 [4]; in vitro
  Direct inhibition of CYP3A4/5 (in words): weak direct inhibitors
[5]
  Safety and tolerability (in words): safe and well tolerated
